The values below come from US20220185791A1, “POLYMORPHS OF A CARDIAC TROPONIN ACTIVATOR” (Amgen Inc., priority 2019, published 2022).

Data set [1] is described as follows: Solubility in water (excess solid, UPLC-UV). Particulars: thermodynamic from solid, room temperature. It counts as physicochemical. An excerpt: Suspensions were filtered.
A short description of data set [2]: Solid stability (UPLC; XRPD, DSC, TGA). The settings on record: 5 weeks at 25° C./60% RH, 40° C./75% RH, 40° C./ambient or 60° C./ambient. It counts as physicochemical. As for the experimental part:
Drug substance was stored at 25° C./60% RH, 40° C./75% RH, 40° C./ambient or 60° C./ambient conditions. Chemical stability was determined at each time point by dissolving the drug substance in 50% acetonitrile water for ultra performance liquid chromatography (“UPLC”) analysis. Physical stability was determined by analyzing the solid by XRPD, DSC and TGA.

Converted amounts (≈) assume the structure as drawn.

One may read the solubility as the dissolved amount per volume that the medium holds. With `CS(=O)(=O)c1cncc(C(=O)N2[C@@H](C(=O)N[C@@H](c3cc(F)c(Cl)cc3F)C3CC3)C[C@H]3C[C@H]32)c1` [Form I, (1R,3R,5R)-N-((R)-(4-chloro-2,5-difluorophenyl)(cyclopropyl)methyl)-2-(5-(methylsulfonyl)nicotinoyl)-2-azabicyclo[3.1.0]hexane-3-carboxamide], the solubility in data set [1] is 9 µg/mL (≈ 17.6 µM). Besides, the “Physical and chemical stability on storage” value in data set [2] is “physically and chemically stable”.
